Experimental data as given in patent publication US7846469B2, “Reversible inhibition of sperm receptor synthesis for contraception” (The Penn State Research Foundation, priority 2006, dated 2010).
Several values for one entry are separate records, joined by “and”; a condition that tells them apart may be missing. Equal entries are not always repeated.

Legend:
fruit fly = assay: Nicarbazin in fruit fly media; format: in vivo; conditions: ethanol carrier
Protocol: According to the invention, nicarbazin specifically influences the expression of the zona pellucida 3 gene and protein in vertebrates. It is expected that other homologs of the ZP3 gene will also be negatively affected by nicarbazine. For example, there is an insect homolog of ZP3 that is a structural component of the wing vein. Nicarbazin interferes with the expression of the insect homolog in the same manner as the vertebrate Gene.
In a quick experiment, 3-5% nicarbazin preparation was added to the media (food) in fruit fly vials using ethanol as a carrier (since fruit flies are attracted to ethanol).

broiler-breeder hens = conditions: cited from earlier work
[1] = system: inner perivitelline membrane (85% ZPC protein); assay: Electron microscopy of inner perivitelline membrane of mature follicle from fed laying hens; format: in vivo, chicken; conditions: 250 ppm nicarbazin treated feed
Description: FIG. 6 is an electron micrograph of a mature follicle from control (C) and nicarbazin treated (T) hens.
As a follow-up experiment, we fed a group of 6 laying hens the 250 ppm nicarbazin treated feed, in an attempt to reduce, but not eliminate, ZPC synthesis. Egg membranes were collected from laid eggs and the most mature follicle dissected from both treated and control hens. The membranes were fixed with osmium tetroxide, sectioned via microtome and viewed with electron microscopy.
This micrograph provides direct, visual confirmation of the previously presented data: that is, that oral nicarbazin dosages reduces the ZP3 content of the oocyte membrane.

rat ZPC mRNA = assay: Quantitative rtPCR of ZPC (ZP3) mRNA copy number in rat ovarian tissue; format: in vivo
Description: (§1) In an attempt to increase nicarbazin absorption in a mammalian species we paired nicarbazin with a typical pharmaceutical carrier, 5% propylene glycol (PGC). A 500 ppm dose was fed to 8 adult, female rats for a 7-day period, at which time the rats were killed and the ovaries removed and placed in RNAlater (to preserve protein, RNA and DNA—4 control rats were also sacrificed). Ovarian proteins and mRNA were extracted via standard laboratory protocols. FIG. 7 illustrates the results of a western blot for ZPC, using a murine monoclonal antibody (which cross-reacts with rat ZPC).
Upon finding a reduction in ZPC-immunoreactive band intensity from ovarian samples obtained from treated animals, we designed PCR primers to identify mRNA for rat ZPC. By applying the quantitative rtPCR technique we were able to estimate the number of copies of the ZPC mRNA that were present in the ovarian tissue samples.

Pekin Ducks = assay: Dose-response feeding study in Pekin ducks: egg production and fertility; format: in vivo, duck
Description: FIG. 3 depicts the fertility of laid eggs obtained from Pekin Ducks fed varying doses of nicarbazin.
(§2) [Images were taken at 20× magnification with DAPI fluorescent stain.]
(§3) Our first study determined the dose-response relationship for the effect of nicarbazin in reducing egg production and/or hatchability in ducks.
Since all hens in this experiment were artificially inseminated with sperm from untreated drakes, the effects on subsequent fertility were considered to be due entirely to the effect of nicarbazin on the female ducks. […] Further, upon the withdrawal of nicarbazin-treated feed, even the hens receiving the highest dose of nicarbazin returned to normal egg production and fertility within 10 days.

chicken ZPC = assay: Western blot for chicken ZPC in isolated hen granulosa cells treated with nicarbazin; format: cell-based
Protocol: FIG. 1 is a Western blot of chicken ZPC proteins.
In a preliminary effort to support this hypothesis, we isolated granulosa cells from primary follicles of a laying hen, and suspended them in a simple cell culture media (1 ml medium (M)199-HEPES supplemented with Hank salts (Gibco-BRL) plus 1 ml Dulbecco modified Eagle medium (DMEM) containing 5% FBS). […] The cells were then disrupted with a sonicator and proteins precipitated and heat solubilized per Barbato et al. (1998). Proteins were concentrated, separated via gel electrophoresis and western blot performed with antibodies to chicken ZPC.

mice = assay: Direct feeding experiment with mating pairs of mice; format: in vivo, mouse
Protocol: The indirect biochemical evidence in the previous section led us to attempt a direct feeding experiment with mice. In this case, mice were fed a 0.5% nicarbazin diet (containing 5% propylene glycol). In addition, 7.5% peanut butter was added to the diet to increase palatability. Ten mating pairs of mice were given access to the diet for 4-5 hrs over a […].

rat ZPC = assay: Western blot for ZPC in rat ovarian tissue after 1 week of nicarbazin feeding; format: in vivo; conditions: 500 ppm with 5% propylene glycol, band at approx. 50 kDa
Description: FIG. 7 is a Western Blot (using mouse ZPC monoclonal antibody) of rat ovarian tissue after 1 week of nicarbazin feeding. [mZPC-mab 1:2000; similar results obtained with dilution of 1:5000 and 1:10000.
as §1

[2] = DNC concentrations in blood and laid eggs of ducks fed nicarbazin; format: in vivo, duck; conditions: 31.25-500 ppm in feed
Description: as §3

ZPC = assay: Western blot of ZPC in oocyte (perivitelline) membrane of laid eggs from fed ducks; format: in vivo, duck
Description: Drug feeding began in Week 2; making Week 1 and internal control.
A subsample of eggs were collected during each week of the experiment, in order to dissect, extract and identify the ZPC in the oocyte membrane using and anti-ZPC antibody and western blotting technique. FIG. 4 illustrates that at the 500 ppm dose of nicarbazin, ZPC was undetectable after the 1st week of treatment, and remained absent thereafter.

FDRL rats = conditions: high dose (300 mg/kg bw per day phenylurea, 100 mg/kg bw per day pyrimidone), F2a and F3a litters; cited from earlier work
[3] = system: sperm attaching to the oocyte; assay: Sperm count on oocyte membrane of eggs from fed, inseminated ducks; format: in vivo, duck; conditions: membranes of eggs from nicarbazin-treated ducks
Description: as §2
Since there appeared to be a decrease in the amount of ZPC (the primary sperm receptor) present in the duck oocyte membranes, we reasoned that the lack of fertility in any laid eggs should be due to a decline in sperm attaching to the oocyte. FIG. 5 illustrates a pair of sample membranes from both control and nicarbazin treated ducks. Consistent with previous data from our lab (e.g., Barbato et al., 1998) 228±15 sperm/mm2 of oocyte membrane were found in eggs from control ducks, whereas there were 0±15 sperm/mm2 counted on the membranes from nicarbazin-treated ducks.

equimolar complex of 1,3-N,N′-bis(4-nitrophenyl)urea and 4,6-dimethyl-2(1H)-pyrimidone [nicarbazin]
fly phenotype (fruit fly; 3% nicarbazin preparation in media): deformed wings and could not fly
hatching of fruit fly eggs (fruit fly; 5% nicarbazin preparation in media): did not hatch
time to return of normal hatchability and egg production after removal of nicarbazin from feed (broiler-breeder hens; after removal from the feed): 7 to 10 days
egg production (broiler-breeder hens; higher levels (ca. 700 ppm) in feed): eliminated egg production entirely
hatchability of fertile eggs (broiler-breeder hens; lower levels of nicarbazin (<125 ppm) in feed): significant reduction in hatchability
width of the inner perivitelline membrane (electron micrograph) [1]: reduction in width
ZP3 mRNA copy number, mean of triplicate estimate per rat (rat ZPC mRNA; individual rats fed nicarbazin 500 ppm for 1 week, ovarian tissue): 0.47 and 0.95 (2×) and 0.75 and 0.50 and 0.85 and 0.77
ZP3 mRNA copy number, overall mean (rat ZPC mRNA; rats fed nicarbazin for 1 week, ovarian tissue, control overall mean 1.00, P = 0.03): 0.71
reduction in copy number of the ZPC gene (rat ZPC mRNA; rats fed nicarbazin versus control): 30%
fertility of eggs (Pekin Ducks; 500 ppm nicarbazin ducks, inseminated with 200 million sperm, of 5 eggs set): 20%
egg production (Pekin Ducks; ducks fed 31.25-500 ppm, FIG. 2): decline in egg production
time to return to normal egg production and fertility after withdrawal (Pekin Ducks; highest dose, after withdrawal of nicarbazin-treated feed): ≤ 10 days
fertility of eggs laid by treated hens (Pekin Ducks; oral doses 31.25-500 ppm, hens inseminated with sperm from untreated drakes, FIG. 3): profound effect
cell viability (chicken ZPC; 100 mM nicarbazin, granulosa cells): all cells were dead
immunoreactive ZPC (western blot) (chicken ZPC; granulosa cells from primary follicles of a laying hen, lanes 4-6 (1, 10, 100 mM nicarbazin)): absence of immunoreactive ZPC
conception rate (mice; mice, 0.5% nicarbazin diet with 5% propylene glycol and 7.5% peanut butter, ten mating pairs, non-treated 90%): 10%
pups per litter (mice; mice, 0.5% nicarbazin diet, non-treated averaging 6 pups per litter): 0.2 pups/litter
reversibility after removal of treated feed (mice; previously treated mice mated over the next month): conceived normal litters
teratogenic effects in pups (mice; pups of treated mice): no sign of teratogenic effects
ZPC immunoreactive band intensity (western blot) (rat ZPC): reduction in intensity
DNC concentrations in blood and laid eggs versus fed nicarbazin dose [2]: linear dose-concentration relationship
ZPC in oocyte membrane (western blot) (ZPC; 250 ppm dose, over time): clear decline in the intensity of ZPC
ZPC in oocyte membrane (western blot) (ZPC; 500 ppm dose, after the 1st week of treatment): undetectable
litter size (FDRL rats): slightly fewer pups
sperm on oocyte membrane [3]: 0±15 sperm/mm2
